Assay results taken from patent US5428036A (H. Lundbeck A/S, priority 1990, dated 1995).

Key:
5-HT2 = target: T1, 5-HT2 (Rattus norvegicus, UniProt P14842); test: Quipazine inhibition (antagonism of quipazine induced head twitches in rats); type: in vivo; conditions: for ED50: po, p.o. 24 hrs before quipazine (6.8 mg/kg, s.c.), head twitches, rat
T1 construct: Four rats, male Wistar (Mol:Wist) SPF rats, are used at each dose level; from tissue; host or cells: living male Wistar (Mol:Wist) SPF rats; receptor endogenous to the animal
Procedure: (§1) The prodrugs of the invention were tested in vitro for 5-HT2 receptor affinity (^3 H-ketanserin binding) and for 5-HT2 antagonistic effect in vivo (antagonism of quipazine induced head twiches).
Quipazine is a 5-HT2 agonist, which induces head twitches in rats. The test is a test for 5-HT2 -antagonistic effect measuring the ability to inhibit head twitches. The method and test results for some reference substances are published by Arnt et al. (Drug Dev. Res., 16, 59-70, 1989).
Test substance is given p.o. 24 hrs before quipazine administration (6.8 mg/kg, s.c., dimaleate). Four rats, male Wistar (Mol:Wist) SPF rats, are used at each dose level. A control group is included each test day. After quipazine administration the rats are individually placed in the observation cages and head twitches are counted in an observation period of 10 min. 30-40 min. after injection of quipazine.
Total number of head twitches in each group are calculated and the result for each dose is expressed as percent of the response in the control group. ED50 values are calculated by log-probit analysis. The test must be repeated if the average number of head twitches is lower than 9 in the control group.

[1] = target: T2, serotonin S2 (5-HT2) receptors (Rattus norvegicus, UniProt P14842); test: Inhibition of 3H-ketanserin binding to serotonin S2 (5-HT2) receptors in rat cortex in vitro; conditions: for IC50: 0.5 nM 3H-ketanserin, rat cortex membranes, 37° C., 30 min
T2 construct: from tissue; host or cells: cerebral cortex membranes of male Wistar (Mol:Wist) rats
Procedure: as §1
Inhibition of ^3 H-ketanserin Binding to Serotonin S2 (5-HT2)Receptors in Rat Cortex in vitro
By this method the inhibition by drugs of the binding of ^3 H-Ketanserin (0,5 nM) to serotonin S2 (5-HT2) receptors in membranes from rat corex is determined in vitro. Method in Hyttel, Pharmacol. & Toxicol, 61, 126-129 1987.
Male Wistar (Mol:Wist) rats are sacrificed and cortical tissue is dissected and weighed. The tissue is homogenized (Ultra Turrax, 10 sec.) in 10 ml of ice-cold 50 mM tris buffer pH 7.7 (at 25° C.). The centrifuge glass ware used in this step has been rinsed by sonication for 10 min. in ethanol. The homogenate is centrifuged twice at 20,000 g for 10 min. at 4° C. with rehomogenization of the pellet in 10 ml ice-cold buffer. The final pellet is homogenized in 500 vol (w/v) ice-cold buffer. Incubation tubes kept on ice in triplicate receive 100 μl of drug solution in water (or water for total binding) and […] of tissue suspension (final tissue content corresponds to 4 mg original tissue). The binding experiment is initiated by addition of 100 μl of ^3 H-Ketanserin (final concentration 0.5 nM) and by placing the tubes in a 37° C. water bath. After incubation for 30 min. the samples are filtered under vacuum (0-50 mBar) through Whatman GF/F filters (25 mm). The tubes are rinsed with 5 ml ice-cold buffer which are then poured on the filters. Thereafter, the filters are washed with 2×5 ml of buffer. The filters are placed in counting vials and 4 ml of appropriate scintillation fluid (e.g. Picofluor™ 15) are added. After shaking for 1 h and storage 2 hrs in the dark the content of radioactivity is determined by liquid scintillation counting. Specific binding is obtained by subtracting the nonspecific binding in the presence of 1 μM mianserin. For determination of the inhibition of binding five concentrations of drugs covering 3 decades are used.
The IC50 value is determined as the concentration at which the binding is 50% of the total binding in control samples minus the nonspecific binding in the presence of 1 μM mianserin.
^3 H-Ketanserin=[ethylene-^3 H]-ketanserin hydrochloride from New England Nuclear, specific activity 60-80 Ci/mmol.

[2] = Sertindole concentration in dog serum after i.m. depot dosing in Viscoleo (HPLC); type: in vivo, Beagle dogs; conditions: i.m. depot formulation in dogs; FIG. 1
Procedure: The depot effects of the compounds of the invention were determined as described in the following example:
Seven Beagle dogs were used. One male and one female dog were used for each preparation exept for 1a where only one female dog was used. The compounds were dissolved in Viscoleo®. One ml Viscoleo® equivalent 1 kg dog. The dogs were dosed i.m. approx. 5 ml in each thigh.
Blood samples were drawn at 1,2, 4, 8, and 24 hours after dosing, and 2, 4, 7, 10, and 14 days after dosing.
The serum samples were analyzed by HPLC using a system consisting of a Spherisorb S5W column (25 cm×4.6 mm) and a Hewlett Packard HP 1090 chromatograph with a HP 1050 UV-absorbance detector with a measuring wavelength of 254 nm. Elution was performed with n-heptane/2-propanol/conc. ammonia/water in the ratio 100/18.4/0.5/0.2, v/v as eluent at ambient temperature with a pressure of approximately 70 bar and a flow rate of 1 ml/min.

T2 sequence (P14842 whole entry): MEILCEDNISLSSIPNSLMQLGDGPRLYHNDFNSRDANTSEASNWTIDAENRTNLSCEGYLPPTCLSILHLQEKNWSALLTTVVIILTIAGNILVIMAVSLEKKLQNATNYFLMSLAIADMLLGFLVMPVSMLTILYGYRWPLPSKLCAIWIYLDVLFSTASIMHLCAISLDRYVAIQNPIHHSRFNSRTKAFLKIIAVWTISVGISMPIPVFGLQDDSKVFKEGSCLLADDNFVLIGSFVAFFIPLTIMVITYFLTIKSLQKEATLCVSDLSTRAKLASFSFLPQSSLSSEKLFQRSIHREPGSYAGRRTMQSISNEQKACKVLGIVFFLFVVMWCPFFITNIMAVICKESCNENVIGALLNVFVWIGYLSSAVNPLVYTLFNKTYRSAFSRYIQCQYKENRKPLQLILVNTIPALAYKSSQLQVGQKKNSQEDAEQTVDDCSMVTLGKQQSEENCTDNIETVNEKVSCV
T1 sequence (P14842 whole entry): as above

## CCCCCCCC(=O)N1CCN(CCN2CCC(c3cn(-c4ccc(F)cc4)c4ccc(Cl)cc34)CC2)C1=O [Compound 8f, 5-chloro-1-(4-fluorophenyl)-3-[1-[2-(3-octanoyl-2-imidazolidinon-1-yl)ethyl]-4-piperidyl]-1H-indole]
5-HT2
  ED50: 0.092 µmol/kg
[1]
  IC50: 140 nM

## CCCCCCCCCCCCCCCC(=O)N1CCN(CCN2CCC(c3cn(-c4ccc(F)cc4)c4ccc(Cl)cc34)CC2)C1=O [Compound 1e]
5-HT2
  ED50: 0.77 µmol/kg
[1]
  IC50: 47 nM

## CC(=O)N1CCN(CCN2CCC(c3cn(-c4ccc(F)cc4)c4ccc(Cl)cc34)CC2)C1=O [Compound 1a]
5-HT2
  ED50: 0.029 µmol/kg
[2]
  decomposition to sertindole after injection of a depot formulation: decompose to sertindole after injection of a depot formulation
[1]
  IC50: 1.2 nM

## O=C1NCCN1CCN1CCC(c2cn(-c3ccc(F)cc3)c3ccc(Cl)cc23)CC1 [sertindole, 5-chloro-1-(4-fluorophenyl)-3-[1-[2-(2-imidazolidinon-1-yl)ethyl]-4-piperidyl]-1H-indole, reference compound]
5-HT2; in vivo, statement in words
  Serotonin S2 (5-HT2) antagonism in vivo: very potent
[1]; in vitro, statement in words
  Serotonin S2 (5-HT2) antagonism in vitro: very potent

## CN(C)CN1CCN(CCN2CCC(c3cn(-c4ccc(F)cc4)c4ccc(Cl)cc34)CC2)C1=O [Compound 6b, 5-chloro-3-[1-[2-(3-dimethylaminomethyl-2-imidazolidinon-1-yl)ethyl]-4-piperidyl]-1-(4-fluorophenyl)-1H-indole]
[1]
  IC50: 0.6 nM

## CN(C)C(=O)N1CCN(CCN2CCC(c3cn(-c4ccc(F)cc4)c4ccc(Cl)cc34)CC2)C1=O [Compound 4a, 5-Chloro-3-[1-[2-(3-dimethylcarbamyl-2-imidazolidinon-1-yl)ethyl]-4-piperidyl]-1-(4-fluorophenyl)-^1 H-indole]
5-HT2
  ED50: 0.24 µmol/kg
[1]
  IC50: 0.9 nM

## CC(C)c1ccc(C(=O)N2CCN(CCN3CCC(c4cn(-c5ccc(F)cc5)c5ccc(Cl)cc45)CC3)C2=O)cc1 [Compound 8a, 5-Chloro-1-(4-fluorophenyl)-3-[1-[2-[3-(4-isopropylbenzoyl)-2-imidazolidinon-1-yl]ethyl]-4-piperidyl]-1H-indole]
5-HT2
  ED50: 0.12 µmol/kg
[1]
  IC50: 20 nM

## CCCCCCCC/C=C\CCCCCCCC(=O)N1CCN(CCN2CCC(c3cn(-c4ccc(F)cc4)c4ccc(Cl)cc34)CC2)C1=O [Compound 2a]
5-HT2
  ED50: 0.55 µmol/kg
[1]
  IC50: 260 nM

## CCCCCCCCCCOC(=O)N1CCN(CCN2CCC(c3cn(-c4ccc(F)cc4)c4ccc(Cl)cc34)CC2)C1=O [Compound 4d, 5-chloro-3-[1-[2-[3-(1-decyl)oxycarbonyl-2-imidazolidinon-1-yl]ethyl]-4-piperidyl]-1-(4-fluorophenyl)-1H-indole]
5-HT2
  ED50: 1.1 µmol/kg
[1]
  IC50: 13 nM

## CCCCCCCCCC(=O)N1CCN(CCN2CCC(c3cn(-c4ccc(F)cc4)c4ccc(Cl)cc34)CC2)C1=O [Compound 1b, 5-chloro-3-[1-[2-(3-decanoyl-2-imidazolidinon-1-yl)ethyl]-4-piperidyl]-1-(4-fluorophenyl)-1H-indole]
5-HT2
  ED50: 0.09 µmol/kg
[1]
  IC50: 57 nM

## O=C(c1ccccc1)N1CCN(CCN2CCC(c3cn(-c4ccc(F)cc4)c4ccc(Cl)cc34)CC2)C1=O [Compound 1f, 3-[1-[2-(3-benzoyl-2-imidazolidinon-1-yl)ethyl]-4-piperidyl]-5-chloro-1-(4-fluorophenyl)-1H-indole]
5-HT2
  ED50: 0.05 µmol/kg
[1]
  IC50: 9.3 nM

## CCOCN1CCN(CCN2CCC(c3cn(-c4ccc(F)cc4)c4ccc(Cl)cc34)CC2)C1=O [Compound 7a, 5-Chloro-3-[1-[2-(3-ethoxymethyl-2-imidazolidinon-1-yl)ethyl]-4-piperidyl]-1-(4-fluorophenyl)-1H-indole]
5-HT2
  ED50: 0.081 µmol/kg
[1]
  IC50: 1.2 nM

## O=C1N(CCN2CCC(c3cn(-c4ccc(F)cc4)c4ccc(Cl)cc34)CC2)CCN1CN1CCOCC1 [Compound 6a, 5-Chloro-1-(4-fluorophenyl)-3-[1-[2-[3-(1-morpholinomethyl)-2-imidazolidinon-1-yl]ethyl]-4-piperidyl]-1H-indole]
5-HT2
  ED50: 0.079 µmol/kg
[1]
  IC50: 0.97 nM

## CCCCCC(=O)N1CCN(CCN2CCC(c3cn(-c4ccc(F)cc4)c4ccc(Cl)cc34)CC2)C1=O [Compound 8e, 5-chloro-1-(4-fluorophenyl)-3-[1-[2-(3-hexanoyl-2-imidazolidinon-1-yl)ethyl]-4-piperidyl]-1H-indole]
5-HT2
  ED50: 0.039 µmol/kg
[1]
  IC50: 38 nM

## CCCC(=O)N1CCN(CCN2CCC(c3cn(-c4ccc(F)cc4)c4ccc(Cl)cc34)CC2)C1=O [Compound 8d, 3-[1-[2-(3-butanoyl-2-imidazolidinon-1-yl)ethyl]-4-piperidyl]-5-chloro-1(4-fluorophenyl)-1H-indole]
5-HT2
  ED50: 0.014 µmol/kg
[1]
  IC50: 5.6 nM

## O=C1N(CO)CCN1CCN1CCC(c2cn(-c3ccc(F)cc3)c3ccc(Cl)cc23)CC1 [Compound 5a, 5-Chloro-1-(4-fluorophenyl)-3-[1-[2-(3-hydroxymethyl-2-imidazolidinon-1-yl)ethyl]-4-piperidyl]-1H-indole]
5-HT2
  ED50: 0.037 µmol/kg
[1]
  IC50: 0.47 nM

## CC(=O)Oc1ccccc1C(=O)N1CCN(CCN2CCC(c3cn(-c4ccc(F)cc4)c4ccc(Cl)cc34)CC2)C1=O [Compound 8c]
5-HT2
  ED50: 0.057 µmol/kg
[1]
  IC50: 24 nM

## CCCCCCCCCCOCN1CCN(CCN2CCC(c3cn(-c4ccc(F)cc4)c4ccc(Cl)cc34)CC2)C1=O [Compound 7d]
5-HT2
  ED50: 0.15 µmol/kg
[1]
  IC50: 49 nM
